From the supplement of paper PMC10307832

How the values were obtained:
Experiment in all cases: relative viability (nuclei count vs DMSO), 5 days (fraction); higher = more cells survive
Wnt-C59 + Alpelisib = compound: CC1=NC=CC(=C1)C2=CC=C(C=C2)CC(=O)NC3=CC=C(C=C3)C4=CN=CC=C4 [Wnt-C59] + Cc1nc(NC(=O)N2CCC[C@H]2C(N)=O)sc1-c1ccnc(C(C)(C)C(F)(F)F)c1 [Alpelisib] (partner 2 µM)
Outline: (§1)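 Cells from lung cancer lines were seeded into 1536-well plates and, one day later, dosed by pin tool. Treatments were either a single drug or a fixed dose of an anchor drug with five library-drug doses (not always all listed) in √10 steps. After 5 days, nuclei were stained in a one-step fixation (final 0.05% Triton X-100, 1% formaldehyde, 1 ug/ml Hoechst) and counted on 4× images, and relative viability is the treated-to-vehicle nuclei ratio, as the median of duplicate plates.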

Lapatinib + Trametinib = compound: CS(=O)(=O)CCNCc1ccc(-c2ccc3ncnc(Nc4ccc(OCc5cccc(F)c5)c(Cl)c4)c3c2)o1 [Lapatinib] + CC(=O)Nc1cccc(-n2c(=O)n(C3CC3)c(=O)c3c(Nc4ccc(I)cc4F)n(C)c(=O)c(C)c32)c1 [Trametinib] (partner 0.02 µM)
Outline: as §1

Lapatinib + Bortezomib = compound: CS(=O)(=O)CCNCc1ccc(-c2ccc3ncnc(Nc4ccc(OCc5cccc(F)c5)c(Cl)c4)c3c2)o1 [Lapatinib] + CC(C)C[C@H](NC(=O)[C@H](Cc1ccccc1)NC(=O)c1cnccn1)B(O)O [Bortezomib] (partner 0.002 µM)
Outline: as §1

Lapatinib + Luminespib = compound: CS(=O)(=O)CCNCc1ccc(-c2ccc3ncnc(Nc4ccc(OCc5cccc(F)c5)c(Cl)c4)c3c2)o1 [Lapatinib] + CCNC(=O)c1noc(-c2cc(C(C)C)c(O)cc2O)c1-c1ccc(CN2CCOCC2)cc1 [Luminespib] (partner 0.01 µM)
Outline: as §1

Cell Line	relative viability (Wnt-C59 + Alpelisib; first compound 0.001 µM)	relative viability (Wnt-C59 + Alpelisib; first compound 0.01 µM)	relative viability (Wnt-C59 + Alpelisib; first compound 0.03162 µM)	relative viability (Wnt-C59 + Alpelisib; first compound 0.1 µM)	relative viability (Lapatinib + Trametinib; first compound 0.02 µM)	relative viability (Lapatinib + Trametinib; first compound 0.06325 µM)	relative viability (Lapatinib + Trametinib; first compound 0.2 µM)	relative viability (Lapatinib + Trametinib; first compound 0.6325 µM)	relative viability (Lapatinib + Trametinib; first compound 2 µM)	relative viability (Lapatinib + Bortezomib; first compound 0.06325 µM)	relative viability (Lapatinib + Bortezomib; first compound 0.2 µM)	relative viability (Lapatinib + Bortezomib; first compound 0.6325 µM)	relative viability (Lapatinib + Bortezomib; first compound 2 µM)	relative viability (Lapatinib + Luminespib; first compound 0.06325 µM)	relative viability (Lapatinib + Luminespib; first compound 0.2 µM)	relative viability (Lapatinib + Luminespib; first compound 0.6325 µM)	relative viability (Lapatinib + Luminespib; first compound 2 µM)	relative viability (Lapatinib + Bortezomib; first compound 0.02 µM)	relative viability (Lapatinib + Luminespib; first compound 0.02 µM)
CAL-12T	1.25	1.32	1.31	1.1	0.308	0.257	0.313	0.29	0.203	0.765	0.822	0.743	0.649	0.236	0.477	0.235	0.35		
NCI-H1975	0.67	0.591	0.707	0.704	0.264	0.282	0.328	0.384	0.254	0.358	0.407	0.405	0.32	0.122	0.239	0.212	0.206	0.467	0.256
PC-14	1.01	0.92	0.995	0.934	0.768	0.674	0.796	0.827	0.0695	0.936	0.835	0.898	0.661	0.147	0.12	0.192	0.149	0.799	
A-427	1.07	1	1.14	1.08	0.724	0.631	0.716	0.788	0.691	0.953	1.05	0.901	0.976	0.751	0.96	0.959	1.1		
H3255	0.798	0.556	0.68	0.596		0.49	0.623	0.516	0.25	0.735	0.581	0.575	0.395	0.676	0.879	0.805	0.757	0.633	0.471
NCI-H23	0.68	0.663	0.822	0.584			0.368	0.467	0.398		1.02	1.07	0.813		0.197	0.215	0.196		
NCI-H2087	1.18	1.05	0.996	1.05	0.208	0.186	0.182	0.217	0.191	0.738	0.832	0.679	0.761	0.169	0.169	0.162	0.161	0.445	
SK-LU-1	0.996	0.992	1.08	1.05	0.377	0.43	0.439	0.557	0.507	1.04	1.05	1.2	1.2	0.223	0.238	0.175	0.2		0.176
NCI-H2347	0.936	1.01	0.9	0.984	0.298	0.236	0.278	0.302	0.281	1.17	0.87	0.796	1	0.156	0.638	0.523	0.361		
